Experimental data taken from ChEMBL document CHEMBL1130937, “Stereoselective synthesis of a novel and bifunctional endothelin antagonist, IRL 3630” (Bioorg Med Chem Lett, 1998).

Key:
[1] = target: T1, Endothelin receptor type B (Homo sapiens, UniProt P24530); assay: Compound was tested for the binding affinity against Endothelin B receptor
T1 sequence (P24530 whole entry): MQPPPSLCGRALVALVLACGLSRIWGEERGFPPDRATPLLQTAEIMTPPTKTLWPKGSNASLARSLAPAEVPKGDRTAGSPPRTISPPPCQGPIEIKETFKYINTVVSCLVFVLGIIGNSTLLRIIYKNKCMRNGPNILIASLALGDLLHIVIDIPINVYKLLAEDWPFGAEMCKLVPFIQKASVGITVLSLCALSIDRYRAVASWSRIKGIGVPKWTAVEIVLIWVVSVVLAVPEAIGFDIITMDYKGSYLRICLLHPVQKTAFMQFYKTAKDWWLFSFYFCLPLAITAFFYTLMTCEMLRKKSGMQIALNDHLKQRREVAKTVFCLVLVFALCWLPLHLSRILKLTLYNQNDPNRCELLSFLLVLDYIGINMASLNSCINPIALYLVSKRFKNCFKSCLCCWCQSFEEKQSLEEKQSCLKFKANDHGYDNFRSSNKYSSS

Endothelin-1 receptor = target: T2, Endothelin-1 receptor (Homo sapiens, UniProt P25101); assay: Compound was tested for the binding affinity against Endothelin A receptor
T2 sequence (P25101 whole entry): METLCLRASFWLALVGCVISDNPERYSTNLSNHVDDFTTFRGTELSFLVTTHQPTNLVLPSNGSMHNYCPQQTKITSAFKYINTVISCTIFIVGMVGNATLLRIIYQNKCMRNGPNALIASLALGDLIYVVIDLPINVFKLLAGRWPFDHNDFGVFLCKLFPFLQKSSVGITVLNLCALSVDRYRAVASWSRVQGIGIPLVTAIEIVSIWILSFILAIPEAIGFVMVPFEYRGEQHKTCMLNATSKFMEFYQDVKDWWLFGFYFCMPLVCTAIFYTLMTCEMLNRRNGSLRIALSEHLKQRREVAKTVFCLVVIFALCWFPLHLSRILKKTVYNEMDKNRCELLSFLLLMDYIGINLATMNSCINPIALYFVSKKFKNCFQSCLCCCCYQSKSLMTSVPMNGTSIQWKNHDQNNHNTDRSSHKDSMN

| Ki [1] [nM] | Ki (Endothelin-1 receptor) [nM] | Structure (SMILES) |
| --- | --- | --- |
| 1200 | 6800 | CCCCS(=O)(=O)NC(=O)[C@@H](NC(=O)[C@H](Cc1ccc(-c2ccno2)cc1)N(C)C(=O)c1cc(C)cc(C)c1)C(C)C |
| 24 | 850 | CCCCS(=O)(=O)NC(=O)[C@H](NC(=O)[C@@H](Cc1ccc(-c2ccno2)cc1)N(C)C(=O)c1cc(C)cc(C)c1)C(C)C |
|  | 1.5 | CCCCS(=O)(=O)NC(=O)[C@@H](NC(=O)[C@@H](Cc1ccc(-c2ccno2)cc1)N(C)C(=O)c1cc(C)cc(C)c1)C(C)C |
| 1200 | 27000 | CCCCS(=O)(=O)NC(=O)[C@H](NC(=O)[C@H](Cc1ccc(-c2ccno2)cc1)N(C)C(=O)c1cc(C)cc(C)c1)C(C)C |
